Test results published in patent US8716226B2, “3,5 phenyl-substituted beta amino acid derivatives as integrin antagonists” (Saint Louis University, priority 2012, dated 2014).

What was measured:
[1] = molecular target: T1, recombinant human biotinylated integrin αvβ8 (Homo sapiens, UniProt P06756+P26012); assay: Solid phase receptor assay for αvβ8 function; conditions: purified integrin binding to LAP-coated plate
T1 construct: biotin (biotinylated heterodimer); purchased R&D Systems
Description: Solid Phase Receptor Assay for αvβ8 Function.
Purified human LAP protein (R&D Systems, Inc) diluted to 0.5 μg/ml in TBS buffer (25 mM Tris 7.4, 137 mM NaCl, 2.7 mM KCl, 1 mM CaCl2, 1 mM MgCl2, 1 mM MnCl2) was added to wells (100 μl/well) of a 96-well half-well transparent microtiter plate (Costar 3690), and incubated overnight at 4° C. Wells were washed 3 times with 150 μl TBS, and 200 μl of blocking buffer (TBS with 1% bovine serum albumin) were added. The plate was incubated for 1 hr at 37° C., and then washed 3× with TBS/0.1% bovine serum albumin. Purified recombinant human biotinylated integrin αvβ8 (R&D Systems) was diluted to 0.1 μg/ml in TBS/0.1% bovine serum albumin. Compounds were diluted into the integrin solution and then 50 μl was added to empty wells of the washed LAP-coated plate, according to a standard template, with each sample repeated in triplicate. After incubation for one hour at room temperature, the plate was washed 3× with 150 μl of TBS/0.1% BSA. 50 μl of streptavidin-conjugated horseradish peroxidase (R&D Systems) was added to the wells, and the plate incubated for 20 min at room temperature. […] Plates were read by colorimetric detection at 650 nm wavelength using a Tecan Safire II plate reader. Concentration-response curves were constructed by non-linear regression (best fit) analysis, and IC50 values were calculated for each compound.

[2] = molecular target: T2, αvβ6 (Homo sapiens, UniProt P06756+P18564); assay: HT-29 cell adhesion assay for αvβ6 function; type: cell-based; conditions: HT-29 cells, adhesion to human LAP
T2 construct: HT-29 cells (American Type Culture Collection, Manassas, Va.), which naturally express αvβ6; endogenous in cells; host or cells: HT-29 (human colon adenocarcinoma, ATCC)
Description: HT-29 Cell Adhesion Assay for αvβ6 Function.
Purified human LAP protein (R&D Systems, Inc) diluted to 0.2 μg/ml in TS buffer (25 mM Tris 7.4, 150 mM NaCl) was added to wells (100 μl/well) of a 96-well microtiter plate (Immulon 2HB 96-well; VWR Scientific) and incubated overnight at 4° C. The solution in each well was then replaced with 200 μl of blocking buffer (TS with 1% bovine serum albumin), and the plate incubated for 1 hr at 37° C. Compounds were diluted in test tubes to 2× the peak testing concentration in cell adhesion buffer consisting of Hanks Buffered Salts Solution (HBSS, cation-free, Sigma), 0.1% bovine serum albumin, 25 mM HEPES, and 200 μM MnCl2. […] The cells were washed with the cell adhesion buffer, counted using a hemocytometer, centrifuged and resuspended in cell adhesion buffer at 4×10^6 cells/ml. […] Remaining attached cells were detected by addition of 100 μl/well p-nitrophenylphosphate (Sigma) solution (15 mg tablet dissolved in 25 ml 50 mM NaAcetate, pH5; 0.5% Triton-X-100), incubation for 30 min at 37° C., and then addition of 50 μl/well 1N NaOH to stop the enzyme reaction. Plates were read by colorimetric detection at 405 nm wavelength using a Tecan Safire II plate reader. Concentration-response curves were constructed by non-linear regression (best fit) analysis, and IC50 values were calculated for each compound. […]

T1 sequence (P06756 31-889 limits assumed): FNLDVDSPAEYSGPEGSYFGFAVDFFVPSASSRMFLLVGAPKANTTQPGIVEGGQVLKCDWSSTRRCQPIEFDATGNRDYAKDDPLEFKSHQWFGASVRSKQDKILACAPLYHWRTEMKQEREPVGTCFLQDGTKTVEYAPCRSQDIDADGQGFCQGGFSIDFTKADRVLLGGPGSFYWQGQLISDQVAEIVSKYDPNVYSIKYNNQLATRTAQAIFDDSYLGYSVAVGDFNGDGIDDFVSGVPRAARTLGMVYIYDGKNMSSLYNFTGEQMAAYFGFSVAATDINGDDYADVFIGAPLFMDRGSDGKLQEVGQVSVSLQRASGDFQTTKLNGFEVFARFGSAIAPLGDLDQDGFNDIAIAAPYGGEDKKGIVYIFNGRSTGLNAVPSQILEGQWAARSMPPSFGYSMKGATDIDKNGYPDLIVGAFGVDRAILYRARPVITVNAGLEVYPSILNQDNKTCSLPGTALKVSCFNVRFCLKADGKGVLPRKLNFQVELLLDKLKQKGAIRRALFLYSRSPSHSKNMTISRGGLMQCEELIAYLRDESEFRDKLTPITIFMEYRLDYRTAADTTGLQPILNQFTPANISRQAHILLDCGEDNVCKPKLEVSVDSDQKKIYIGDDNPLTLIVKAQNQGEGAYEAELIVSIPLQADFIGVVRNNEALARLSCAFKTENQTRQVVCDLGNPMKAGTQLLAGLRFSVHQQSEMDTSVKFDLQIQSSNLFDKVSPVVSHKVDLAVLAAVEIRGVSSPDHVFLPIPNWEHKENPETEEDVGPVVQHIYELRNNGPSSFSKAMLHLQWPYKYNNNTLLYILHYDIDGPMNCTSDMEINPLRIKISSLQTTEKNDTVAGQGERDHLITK
T1 sequence (P06756 891-992 partner limits assumed): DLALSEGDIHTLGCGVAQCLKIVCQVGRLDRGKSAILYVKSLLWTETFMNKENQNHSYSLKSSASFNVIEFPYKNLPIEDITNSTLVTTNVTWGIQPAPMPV
T1 sequence (P26012 43-684 limits assumed): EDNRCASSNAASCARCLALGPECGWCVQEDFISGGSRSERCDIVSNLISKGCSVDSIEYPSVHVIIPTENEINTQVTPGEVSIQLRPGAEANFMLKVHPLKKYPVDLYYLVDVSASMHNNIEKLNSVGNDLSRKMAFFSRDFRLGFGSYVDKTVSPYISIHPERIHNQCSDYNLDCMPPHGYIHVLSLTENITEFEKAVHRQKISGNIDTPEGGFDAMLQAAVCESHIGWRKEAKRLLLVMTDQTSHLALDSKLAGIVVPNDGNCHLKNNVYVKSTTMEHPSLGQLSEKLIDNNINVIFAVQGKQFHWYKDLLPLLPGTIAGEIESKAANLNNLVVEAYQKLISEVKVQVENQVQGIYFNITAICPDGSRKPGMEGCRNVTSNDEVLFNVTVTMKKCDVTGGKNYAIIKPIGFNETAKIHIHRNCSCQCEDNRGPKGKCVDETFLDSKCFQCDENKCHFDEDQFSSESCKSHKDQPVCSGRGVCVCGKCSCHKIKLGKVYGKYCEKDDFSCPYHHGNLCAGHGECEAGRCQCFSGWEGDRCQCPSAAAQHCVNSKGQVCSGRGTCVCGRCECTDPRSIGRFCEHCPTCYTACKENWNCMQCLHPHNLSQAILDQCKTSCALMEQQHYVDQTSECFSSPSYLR
T2 sequence (P06756 31-889 limits assumed): as the sequence (P06756 31-889 limits assumed) above
T2 sequence (P06756 891-1048 partner limits assumed): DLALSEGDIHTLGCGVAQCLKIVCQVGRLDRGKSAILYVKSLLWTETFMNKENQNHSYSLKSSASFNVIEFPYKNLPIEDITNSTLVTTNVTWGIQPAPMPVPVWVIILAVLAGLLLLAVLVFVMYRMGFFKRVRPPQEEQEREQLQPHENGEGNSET
T2 sequence (P18564 22-788): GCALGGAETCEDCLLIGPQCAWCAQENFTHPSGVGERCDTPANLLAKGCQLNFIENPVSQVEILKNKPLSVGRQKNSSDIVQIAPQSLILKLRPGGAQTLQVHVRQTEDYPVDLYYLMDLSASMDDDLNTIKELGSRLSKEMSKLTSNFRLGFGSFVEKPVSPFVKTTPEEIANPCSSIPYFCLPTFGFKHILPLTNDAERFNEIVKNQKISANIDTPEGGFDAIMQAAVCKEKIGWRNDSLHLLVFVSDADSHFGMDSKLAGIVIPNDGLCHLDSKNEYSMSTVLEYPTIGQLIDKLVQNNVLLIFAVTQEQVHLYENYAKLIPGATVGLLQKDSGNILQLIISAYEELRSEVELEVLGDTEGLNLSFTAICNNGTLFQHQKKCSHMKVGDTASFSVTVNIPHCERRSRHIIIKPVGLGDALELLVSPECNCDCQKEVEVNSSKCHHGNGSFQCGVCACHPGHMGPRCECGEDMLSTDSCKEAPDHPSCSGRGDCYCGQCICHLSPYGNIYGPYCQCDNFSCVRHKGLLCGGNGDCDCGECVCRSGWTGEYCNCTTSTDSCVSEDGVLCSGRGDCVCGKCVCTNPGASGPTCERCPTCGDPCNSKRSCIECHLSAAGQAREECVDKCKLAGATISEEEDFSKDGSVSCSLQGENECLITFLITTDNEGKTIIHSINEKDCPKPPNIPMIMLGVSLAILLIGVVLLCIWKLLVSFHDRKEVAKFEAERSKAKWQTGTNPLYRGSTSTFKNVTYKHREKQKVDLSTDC

For `CC(C)(C)c1cc(Br)cc([C@H](CC(=O)O)NC(=O)CNC(=O)c2cc(O)cc(NC3=NCC(O)CN3)c2)c1` (stereo partly drawn) [Example 1, (3S)—N-[3-hydroxy-5-[(1,4,5,6-tetrahydro-5-hydroxy-2-pyrimidinyl)amino]benzoyl]glycyl-3-(3-bromo-5-tert-butylphenyl)-β-alanine], which IC50 [1] is on record?
Its IC50 is 230 pM.

What about the IC50 [2] of the same molecule?
Its IC50 is 1500 pM.
